From ChEMBL document CHEMBL1201862, “PubChem BioAssay data set” (2004)
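Results reflect a 48-hour exposure of cells in 96-well plates to compound at five concentrations. GI50 = concentration required for 50% inhibition of growth.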 Calls of active or inactive are those of the source. Cut-off read from the data, not from the text of the source: active = GI50 up to about 1.1 µM and inactive = higher.

Legend:
Experiment in all cases: NCI-60 cell line screen, 48 h
[1] = system: HOP-92
[2] = system: SK-MEL-5
[3] = system: OVCAR-5
[4] = system: LOX IMVI
[5] = system: COLO 205
[6] = system: HOP-18
[7] = system: UACC-257
[8] = system: CCRF-CEM
[9] = system: CAKI-1
[10] = system: RXF 631
[11] = system: HCC 2998
[12] = system: HCT-116
[13] = system: SF-295
[14] = system: HL-60
[15] = system: HT-29
[16] = system: SW-620
[17] = system: RXF 393
[18] = system: HCT-15
[19] = system: M19-MEL
[20] = system: UACC-62
[21] = system: RPMI-8226
[22] = system: NCI-H226
[23] = system: OVCAR-3
[24] = system: NCI-H522
[25] = system: HOP-62
[26] = system: M14
[27] = system: SNB-78
[28] = system: TK-10
[29] = system: SN12C
[30] = system: SR
[31] = system: SF-539
[32] = system: MOLT-4
[33] = system: KM12
[34] = system: SNB-75
[35] = system: UO-31
[36] = system: DMS-114
[37] = system: A498
[38] = system: NCI-H460
[39] = system: SK-MEL-2
[40] = system: U-251
[41] = system: ACHN
[42] = system: OVCAR-4
[43] = system: IGROV-1
[44] = system: SK-MEL-28
[45] = system: LXFL 529
[46] = system: SK-OV-3
[47] = system: 786-0
[48] = system: Malme-3M
[49] = system: SF-268
[50] = system: OVCAR-8
[51] = system: DLD-1
[52] = system: K562
[53] = system: DMS-273
[54] = system: KM-20L2
[55] = system: EKVX
[56] = system: NCI-H23
[57] = system: A549

## O=C(O/N=C1/CCC/C1=C\c1ccccc1)c1ccc([N+](=O)[O-])cc1
[1]
  GI50: > 100 µM (inactive)
[2]
  GI50: > 100 µM (inactive)
[3]
  GI50: > 100 µM (inactive)
[4]
  GI50: > 100 µM (inactive)
[5]
  GI50: > 100 µM (inactive)
[6]
  GI50: > 100 µM (inactive)
[7]
  GI50: > 100 µM (inactive)
[8]
  GI50: > 100 µM (inactive)
[9]
  GI50: > 100 µM (inactive)
[10]
  GI50: > 100 µM (inactive)
[11]
  GI50: 11.7 µM (inactive)
[12]
  GI50: > 100 µM (inactive)
[13]
  GI50: > 100 µM (inactive)
[14]
  GI50: > 100 µM (inactive)
[15]
  GI50: > 100 µM (inactive)
[16]
  GI50: > 100 µM (inactive)
[17]
  GI50: 84.7 µM (inactive)
[18]
  GI50: > 100 µM
[19]
  GI50: 15.5 µM (inactive)
[20]
  GI50: > 100 µM (inactive)
[21]
  GI50: > 100 µM (inactive)
[22]
  GI50: > 100 µM (inactive)
[23]
  GI50: > 100 µM (inactive)
[24]
  GI50: > 100 µM (inactive)
[25]
  GI50: 96.6 µM (inactive)
[26]
  GI50: > 100 µM (inactive)
[27]
  GI50: > 100 µM (inactive)
[28]
  GI50: > 100 µM (inactive)
[29]
  GI50: > 100 µM (inactive)
[30]
  GI50: > 100 µM (inactive)
[31]
  GI50: 89.3 µM (inactive)
[32]
  GI50: > 100 µM (inactive)
[33]
  GI50: > 100 µM (inactive)
[34]
  GI50: 31.6 µM (inactive)
[35]
  GI50: 25.3 µM (inactive)
[36]
  GI50: > 100 µM (inactive)
[37]
  GI50: > 100 µM (inactive)
[38]
  GI50: > 100 µM (inactive)
[39]
  GI50: > 100 µM (inactive)
[40]
  GI50: > 100 µM (inactive)
[41]
  GI50: > 100 µM (inactive)
[42]
  GI50: > 100 µM (inactive)
[43]
  GI50: > 100 µM (inactive)
[44]
  GI50: > 100 µM (inactive)
[45]
  GI50: > 100 µM (inactive)
[46]
  GI50: > 100 µM (inactive)
[47]
  GI50: > 100 µM (inactive)
[48]
  GI50: > 100 µM (inactive)
[49]
  GI50: 71.6 µM (inactive)
[50]
  GI50: > 100 µM (inactive)
[51]
  GI50: > 100 µM (inactive)
[52]
  GI50: > 100 µM (inactive)
[53]
  GI50: > 100 µM (inactive)
[54]
  GI50: > 100 µM (inactive)
[55]
  GI50: > 100 µM (inactive)
[56]
  GI50: > 100 µM (inactive)
[57]
  GI50: > 100 µM (inactive)

## O=S1(=O)CCCS(=O)(=O)C(c2ccccc2)=C1c1ccccc1
[1]
  GI50: 28.2 µM (inactive)
[2]
  GI50: 52.8 µM (inactive)
[3]
  GI50: > 100 µM (inactive)
[4]
  GI50: 33 µM (inactive)
[6]
  GI50: 44.6 µM (inactive)
[7]
  GI50: 69.7 µM (inactive)
[8]
  GI50: 32.1 µM (inactive)
[9]
  GI50: 76.7 µM (inactive)
[10]
  GI50: 84.7 µM (inactive)
[11]
  GI50: 18.5 µM (inactive)
[12]
  GI50: 30.5 µM (inactive)
[13]
  GI50: > 10 µM (inactive)
[14]
  GI50: 18.6 µM (inactive)
[15]
  GI50: 64 µM (inactive)
[16]
  GI50: 27.5 µM (inactive)
[18]
  GI50: 27.7 µM
[19]
  GI50: 70.5 µM (inactive)
[20]
  GI50: 29 µM (inactive)
[21]
  GI50: 41 µM (inactive)
[22]
  GI50: 56.5 µM (inactive)
[23]
  GI50: 36.6 µM (inactive)
[24]
  GI50: 27.5 µM (inactive)
[25]
  GI50: 30.3 µM (inactive)
[26]
  GI50: 26.9 µM (inactive)
[27]
  GI50: > 100 µM (inactive)
[28]
  GI50: > 100 µM (inactive)
[29]
  GI50: 29.4 µM (inactive)
[30]
  GI50: 31.6 µM (inactive)
[31]
  GI50: > 100 µM (inactive)
[32]
  GI50: 36.2 µM (inactive)
[33]
  GI50: 24.7 µM (inactive)
[34]
  GI50: 27.5 µM (inactive)
[35]
  GI50: > 100 µM (inactive)
[36]
  GI50: 42.7 µM (inactive)
[37]
  GI50: > 100 µM (inactive)
[38]
  GI50: 47.3 µM (inactive)
[39]
  GI50: 42.6 µM (inactive)
[40]
  GI50: 92.7 µM (inactive)
[41]
  GI50: 54 µM (inactive)
[42]
  GI50: 23.3 µM (inactive)
[43]
  GI50: 70.5 µM (inactive)
[44]
  GI50: > 100 µM (inactive)
[45]
  GI50: 29.6 µM (inactive)
[46]
  GI50: 44.2 µM (inactive)
[47]
  GI50: 66.4 µM (inactive)
[48]
  GI50: 34.2 µM (inactive)
[49]
  GI50: > 100 µM (inactive)
[50]
  GI50: 91.6 µM (inactive)
[51]
  GI50: 39.7 µM (inactive)
[52]
  GI50: 31.9 µM (inactive)
[54]
  GI50: 37.2 µM (inactive)
[55]
  GI50: > 100 µM (inactive)
[56]
  GI50: 50.5 µM (inactive)
[57]
  GI50: 42.3 µM (inactive)
